Data as given in patent publication US20150064111A1, “NOVEL TARGETING AGENTS FOR DIAGNOSTIC AND THERAPEUTIC INDICATIONS” (APOSENSE LTD., priority 2012, published 2015).

Experiments:
[1] = Pharmacokinetic evaluation of tritiated candidates in naive and chemotherapy treated mice; conditions: mouse, in vivo
From the text: (§1) In order to determine the pharmacokinetics properties of APO-698, its unlabeled analog, APO-697 was used. Table-1 summarizes the pharmacokinetic study performed in CD1 mice for the two unlabeled (cold) analogs, ML-10 and APO-697.

[2] = Blood partitioning (red blood cells/plasma); type: in vitro ADME; conditions: mouse blood
From the text: as §1

[3] = Pharmacokinetic study of unlabeled (cold) analogs in CD1 mice; type: in vivo; conditions: for AUC(0-inf) / half-life / clearance / Vd: mouse, in vivo; for clearance: read-out: Total clearance (converted); for Vd: read-out: Vss; for Total clearance, percentage in brackets / Vss, percentage in brackets: reference of the percentage not explained
From the text: as §1

[4] = system: CD95-treated Jurkat cells; assay: In-vitro screening: uptake of tritiated compounds into apoptotic Jurkat cells; type: cell-based; conditions: tritiated compound, 30 minutes, 37° C., beta-counter; control untreated uptake set as 1
Protocol: Uptake was measured using beta counter. zVAD treated cells reversed the phenotype decreasing uptake to control values (set as 1) in all tested candidates. Shown are means±SD of three independent experiments performed in triplicates.
For in-vitro screening of the compounds of the invention, apoptosis-induction model in hematopoietic derived cancer cell line, Jurkat was used.
Jurkat cells were cultured in RPMI supplemented with 10% fetal bovine serum, 4 mM L-glutamine, 100 U/ml penicillin and 100 n/ml streptomycin in a humidified incubator at 37° C., 5% CO2. Cells were counted and re-suspended in hepes buffer saline (HBS).
Apoptosis induction: 10^7 cells/ml were incubated for two hours with 0.1 n/ml of anti-Fas (CD95) antibody. For apoptosis inhibition (specific control), induced and control cells were incubated with 50 μM of the specific caspase inhibitor, Zvad. 2 μl Ci of the tritiated compounds or ML-10 as reference, were added to the cells for 30 minutes. All incubations were performed at 37° C. After incubation with the tritiated compounds, cells were washed twice in HBS, transferred to scintillation liquid and radioactivity was monitored using beta-counter. The percentage of uptake was calculated using the standard DPM readings. […]

[5] = system: human colorectal cancer cells HCT-116 xenografts; assay: In-vivo screening: tumor/blood uptake ratio in HCT-116 xenografts; set-up: species or system Athymic nude mice; conditions: intravenous tritiated compound, HCT-116 xenograft, FIG. 2 (one and a half hours before samples collection)
Protocol: Athymic nude mice were inoculated with HCT-116 human colorectal cancer cells. Mice were subjected to intravenous injection of tritiated ML-10 and APO-650 one and a half hours before samples collection. Blood samples were taken before sacrificing the animals. Blood and tumor samples radioactivity was measured in a beta-counter.
In order to assess the in-vivo accumulation of ML-10 and compounds of the invention, the uptake into human colorectal cancer cells HCT-116 xenografts was monitored. Athymic nude mice were subcutaneously inoculated with […] HCT-116 cells. After the formation of tumors, ML-10 and APO-650 were intravenously administrated to the mice, 30 and 90 minutes before scarification (n≧8). Peripheral blood samples were collected prior to animals' scarification. Tumors were dissected, homogenized and all samples were calibrated in scintillation fluid before radioactivity was measured in a beta-counter. To inspect signal to noise ratio, the ratio of uptake into the tumor versus blood was calculated.

In the case of `CC(CCCCCF)(C(=O)O)C(=O)O` [ML-10, (5-fluoropentyl)(methyl)propanedioic acid, reference compound], the half-life ([1]; Naive mice, tritiated, read-out: t1/2) is reported as 10 min, the KRBC/PL [2] is reported as 0.01 and the AUC(0-inf) ([3]; unlabeled compound) is reported as 32.6 ng·h/mL. For the same compound, the half-life ([3]; unlabeled compound) was 11.2 min, the clearance ([3]; unlabeled compound) was 10.2 mL/min/kg and the Vd ([3]; unlabeled compound) was 0.152 L/kg. The “Total clearance, percentage in brackets” value [3] was “(11.4%)” and the “Vss, percentage in brackets” value [3] was “(21.0%)”.

With `CC(CCCCC[18F])(c1nnn[nH]1)c1nnn[nH]1` [APO-600, 5,5′(7-^18fluoroheptane-2,2-diyl)bis(1H-tetrazole)] the “fold increase uptake of CD95-treated cells (uptake of the tracer into the apoptotic cells)” value [4] was “high uptake”.

Compound `COc1cc2c(c(OC)c1OC)-c1ccc(OC)c(=O)cc1[C@@H](NC(=O)CCCCCC(C)(C(=O)O)C(=O)O)CC2` [APO-697, 2-methyl-2-(5-{[(10S)-3,4,5,14-tetramethoxy-13-oxotricyclo[9.5.0.0{2,7}]hexadeca-1(16),2,4,6,11,14-hexaen-10-yl]carbamoyl}pentyl)propanedioic acid] has a KRBC/PL [2] of 0.07, an AUC(0-inf) ([3]; unlabeled compound) of 5.16 ng·h/mL and a half-life ([3]; unlabeled compound) of 7.92 min. The clearance ([3]; unlabeled compound) was 64.7 mL/min/kg, the Vd ([3]; unlabeled compound) was 0.435 L/kg and the “Total clearance, percentage in brackets” value [3] was “(71.9%)”. The “Vss, percentage in brackets” value [3] was “(60.0%)”, the Total clearance ([3]; unlabeled compound) was “higher” and the Vss ([3]; unlabeled compound) was “higher volume of distribution”. For the same compound, the t1/2 ([3]; unlabeled compound) was “shorter t1/2”.

For `CN(CCCCC(C)(C(=O)O)C(=O)O)c1ncc([N+](=O)[O-])s1` [APO-650, 2-methyl-2-{4-[(5-nitro-1,3-thiazol-2-yl)tritritiummethylamino]butyl}propanedioic acid], the half-life ([1]; t1/2) was 8 min and the tumor/blood ratio [5] was “six-fold”.

With `O=C(O)c1ccc(CCC[18F])cc1C(=O)O` [APO-630, 4-(3-^18fluoropropyl)phthalic acid] the half-life ([1]; t1/2) was 10 min and the “fold increase uptake of CD95-treated cells (uptake of the tracer into the apoptotic cells)” value [4] was “high uptake”.
